Experimental data as given in US7815949B2, “Estrogenic extracts of Morus alba and uses thereof” (BioNovo, Inc., priority 2004, dated 2010).

Legend:
ERα or ERβ = test: ERE-tk-Luc luciferase activation in U937 cells transfected with ERα or ERβ; type: cell-based; conditions: human monocytic U937 cells
Method: (§1) Plasmid Construction. […] ERβ mutants were created with QuikChange site-directed mutagenesis kits (Stratagene), by using oligonucleotides containing the mutation. The mutants were sequenced with Sequenase kits (Amersham Pharmacia) to verify the presence of the mutation.
(§2) U937 cells were maintained as described previously, whereas U2OS, MDA-MB435, and MCF-7 cells were maintained and subcultured in phenol red-free Dulbecco's modified Eagle's medium/F-12 media containing 5% fetal bovine serum, 2 mM glutamine, 50 units/ml penicillin, and 50 μg/ml streptomycin. For experiments, cells were collected, transferred to a cuvette, and then electroporated with a Bio-Rad gene pulser as described previously using 3 μg of reporter plasmid and 1 μg of ERα or ERβ expression vectors. After electroporation, the cells were re-suspended in media and plated at 1 ml/dish in 12-well multiplates. […] The concentration of hormone required to produce a half-maximal induction (EC50) or inhibition (IC50) of luciferase activity was calculated with the Prism curve-fitting program (Graph Pad Software, version 2.0b). […] The cells were plated in duplicate at a density of 25,000 cells/35-mm plate in tissue culture medium containing 3% stripped fetal bovine serum. […] After 8 days the cells were counted with a Coulter counter.

ERβ [1] = target: T1, ERβ (Homo sapiens, UniProt Q92731); test: Repression of TNF-α activation of TNF-RE-tk-Luc in U2OS cells, ERβ; type: cell-based; design: expressed in transfected cells; host or cells: U2OS (human osteosarcoma)
T1 sequence (Q92731 whole entry): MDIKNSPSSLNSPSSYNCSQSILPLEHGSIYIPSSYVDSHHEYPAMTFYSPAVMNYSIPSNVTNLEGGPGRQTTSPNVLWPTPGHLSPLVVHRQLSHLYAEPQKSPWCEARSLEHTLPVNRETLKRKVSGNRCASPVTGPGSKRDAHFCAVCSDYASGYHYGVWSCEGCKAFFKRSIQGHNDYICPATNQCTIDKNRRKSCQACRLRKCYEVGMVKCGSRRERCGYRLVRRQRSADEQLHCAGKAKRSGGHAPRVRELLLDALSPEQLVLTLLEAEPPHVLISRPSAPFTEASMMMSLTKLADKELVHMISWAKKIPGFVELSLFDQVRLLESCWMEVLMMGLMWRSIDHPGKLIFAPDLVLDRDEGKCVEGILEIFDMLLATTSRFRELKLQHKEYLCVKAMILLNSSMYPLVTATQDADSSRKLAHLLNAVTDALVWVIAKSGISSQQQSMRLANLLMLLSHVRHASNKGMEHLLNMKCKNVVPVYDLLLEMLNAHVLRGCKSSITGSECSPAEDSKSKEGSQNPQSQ
Method: as §2
The extracts (a and b) were than decanted and only the soluble material was used.

ERβ [2] = target: T1, ERβ; conditions: in the presence of ERβ
Method: as §1, §2

TNF-RE-tk-Luc = test: Antiestrogen effect on TNF-RE-tk-Luc (Example 2); type: cell-based; conditions: for effect on the repression induced by E2: TNF-RE-tk-Luc; for activation of TNF-RE-tk-Luc: antiestrogens, in contrast to E2
Method: as §1, §2

breast cancer = conditions: among 5129 women in the treatment group, median follow-up 40 months; cited from earlier work
[3] = tested on: estrogen receptor-positive breast cancer; conditions: five years of therapy; cited from earlier work
[4] = tested on: primary invasive breast cancer; conditions: women at high risk for breast cancer; cited from earlier work

For `C[C@]12CC[C@@H]3c4ccc(O)cc4CC[C@H]3[C@@H]1CC[C@@H]2O` [E2, estradiol], the “greater activation of the ERE in the presence of ERα compared to ERβ” value (ERα or ERβ) was 10 fold, the “repression of TNF-α activation of TNF-RE” value (ERβ [1]) was 100% and the “repression of TNF-α activation of TNF-RE-tk-Luc” value (ERβ [2]) was 60-80%.

With `C[C@]12CC[C@@H]3c4ccc(O)cc4C[C@@H](CCCCCCCCC[S+]([O-])CCCC(F)(F)C(F)(F)F)[C@H]3[C@@H]1CC[C@@H]2O` (stereo partly shown) [ICI 182, 780] the “effect on the repression induced by E2” value (TNF-RE-tk-Luc) was “abolished” and the “activation of TNF-RE-tk-Luc” value (TNF-RE-tk-Luc) was 2 fold.

In the case of `O=C(c1ccc(OCCN2CCCCC2)cc1)c1c(-c2ccc(O)cc2)sc2cc(O)ccc12` [raloxifene], the “effect on the repression induced by E2” value (TNF-RE-tk-Luc) is listed as “abolished”, the “activation of TNF-RE-tk-Luc” value (TNF-RE-tk-Luc) is listed as 2 fold and the “cases of breast cancer” value (breast cancer) is listed as 13 cases.

For `CC/C(=C(\c1ccccc1)c1ccc(OCCN(C)C)cc1)c1ccccc1` [tamoxifen], the “effect on the repression induced by E2” value (TNF-RE-tk-Luc) is given as “abolished”, the “activation of TNF-RE-tk-Luc” value (TNF-RE-tk-Luc) is given as 2 fold and the “reduction of mortality from breast cancer” value [3] is given as 22%. The “reduction of the risk of recurrences” value [3] was 42% and the “reduction of the risk of primary invasive breast cancer” value [4] was 49%.
